Measured values taken from paper PMC11152041, “Tricarbonyl rhenium(I) complexes with 8-hydroxyquinolines: structural, chemical, antibacterial, and anticancer characteristics” (RSC Advances, 2024).
In brackets after ≈: the same amount, converted by molar mass. Like-named read-outs stand apart in the source and are kept apart here.

What was measured:
E. coli ATCC25922 = assay: Broth microdilution MIC/MBC (ISO 20776-1); type: cell-based, Escherichia coli; details: Escherichia coli
Description: (§1) Bacterial strains and cell lines were obtained from the American Type Culture Collection (ATCC).[59] […] Antimicrobial activity was tested in Müeller Hinton (MH) II broth (Becton Dickinson). For anticancer activity assay, the following reagents from Merk were used: 3-(4,5-dimethylthiazol-2-yl)-2,5-diphenyltetrazolium bromide (MTT), sodium dodecyl sulfate (SDS) and HCl. The solubilized formazan product was spectrophotometrically quantified in a Power Wave XS (Bio Tek, Winooski, VT, USA) microplate reader. The HL-60 and PC-3 cells were grown in RPMI-1640 medium with stable glutamine (Biowest) supplemented with 10% (v/v) of heat-inactivated fetal bovine serum (FBS, Biowest) and 1% (v/v) of antibiotic–antimycotic solution (Biowest). The SKOV-3 cells were grown in McCoy's 5A medium with L-glutamine (Biowest) supplemented with 10% (v/v) heat-inactivated FBS, and 1% (v/v) antibiotic–antimycotic solution. The MCF-7 cells were grown in Eagle's MEM (Minimal Essential Medium) medium with stable glutamine (Biowest), supplemented with 10% (v/v) heat-inactivated FBS 1% (v/v) MEM non-essential amino acids (Biowest), 1% (v/v) antibiotic–antimycotic solution, and 1 mM sodium pyruvate (Merck). The MCF-10A cells were grown in Ham's F-12K (Kaighn's) Medium with stable glutamine (Gibco) supplemented with 5% (v/v) heat-inactivated FBS, 1% (v/v) MEM non-essential amino acids, 1% (v/v) antibiotic–antimycotic solution, 5 μg mL^−1 insulin, 0.04 μg mL^−1 hydrocortisone (Merck), and 15 ng mL^−1 human Epidermal Growth Factor (hEGF, PeproTech).
(§2) The in vitro antibacterial activity was determined according to ISO 20776-1.[88] Among the tested microorganisms were Gram-negative rods, E. coli ATCC25922 and P. aeruginosa ATCC27853, and Gram-positive cocci, S. aureus ATCC29213 and E. faecalis ATCC29212. The selected bacterial species represented the most common etiologic agents of human infections and are used for quality control of antimicrobial susceptibility testing.[89] The test procedure included the determination of MICs and MBCs of complexes and their free ligands. MIC and MBC determinations of ciprofloxacin, as the reference antibiotic, were also performed. All compounds were dissolved in DMSO to reach the maximum 512 mg L^−1 concentration. […] The assay consisted of preparing 2-fold dilutions of the substances in a liquid growth medium MH II and inoculating them with a standardized suspension of microorganisms at a McFarland density of 0.5 (≈10^8 CFU mL^−1). The culture plates were incubated at 35 °C for 24 h. The lowest concentration of the compound inhibiting visible bacterial growth was specified as MIC, and the concentration that reduced bacterial growth by >99.99% after counting live bacteria on the plates compared to the positive control was defined as MBC.

P. aeruginosa ATCC27853 = assay: Broth microdilution MIC/MBC (ISO 20776-1); type: cell-based, Pseudomonas aeruginosa; details: Pseudomonas aeruginosa
Description: as §1, §2

S. aureus ATCC29213 = assay: Broth microdilution MIC/MBC (ISO 20776-1); type: cell-based, Staphylococcus aureus; details: Staphylococcus aureus
Description: as §1, §2

E. faecalis ATCC29212 = assay: Broth microdilution MIC/MBC (ISO 20776-1); type: cell-based, Enterococcus faecalis; details: Enterococcus faecalis
Description: as §1, §2

HL-60 cells = assay: MTT cytotoxicity assay; type: cell-based, human; details: Homo sapiens
Description: (§3) The cytotoxicities for studied compounds were evaluated against leukemia cells (HL-60), as well as ovarian (SKOV-3), prostate (PC-3), and breast (MCF-7) cancer cell lines. The potential selectivity of these compounds towards cancer cells was assessed by determination of their cytotoxicities towards breast non-cancerous cells (MCF-10A). For comparison, cisplatin was added to the cytotoxicity assays.
as §1
(§4) The cells were cultured in 96-well plates and incubated with the tested compound for 24 h and 48 h. All experiments were performed in exponentially growing cultures. The 0.03 M solutions of the compounds in DMSO were appropriately diluted using culture media. The maximal final concentration of DMSO in each well was 0.1%. The cytotoxicity of the compounds was measured by determining cell viability with a colorimetric test based on 3-(4,5-dimethylthiazol-2-yl)-2,5-diphenyltetrazolium bromide (MTT). MTT stock solution was added to each well to a final concentration of 0.5 mg mL^−1 and incubated for 4 h at 37 °C; following formazan crystals were dissolved by the addition of sodium dodecyl sulfate (SDS) solution (10% SDS in 0.001 M HCl). MTT and SDS were added directly to the cell culture. The compound's IC50 values (concentration required to reduce the viability of cells by 50% compared with the control cells) were calculated from the data obtained with the MTT assay.

MCF-7 cells = assay: MTT cytotoxicity assay; type: cell-based, human; details: for IC50: Homo sapiens, read-out: IC50 ± SD; for selectivity: IC50 for normal cells times higher than for breast cancer cells: MCF-10A versus MCF-7
Description: as §3, §1, §4

PC-3 cells = assay: MTT cytotoxicity assay; type: cell-based, human; details: Homo sapiens, read-out: IC50 ± SD
Description: as §3, §1, §4

SKOV-3 cells = assay: MTT cytotoxicity assay; type: cell-based, human; details: Homo sapiens, read-out: IC50 ± SD
Description: as §3, §1, §4

MCF-10A cells = assay: MTT cytotoxicity assay; details: Homo sapiens, MCF-10A, read-out: IC50 ± SD
Description: as §3, §1, §4

[1] = E. coli ATCC25922, >99.99% reduction of growth, read-out: MBC
[2] = E. coli ATCC25922, MH II broth, 35 °C, 24 h, read-out: MIC
[3] = P. aeruginosa ATCC27853, >99.99% reduction of growth, read-out: MBC
[4] = P. aeruginosa ATCC27853, MH II broth, 35 °C, 24 h, read-out: MIC
[5] = S. aureus ATCC29213, >99.99% reduction of growth, read-out: MBC
[6] = S. aureus ATCC29213, MH II broth, 35 °C, 24 h, read-out: MIC
[7] = E. faecalis ATCC29212, >99.99% reduction of growth, read-out: MBC
[8] = E. faecalis ATCC29212, MH II broth, 35 °C, 24 h, read-out: MIC

O=C(O)c1cn(C2CC2)c2cc(N3CCNCC3)c(F)cc2c1=O [CIP, ciprofloxacin, reference compound]
MBC (E. coli ATCC25922; [1]): 4 mg/L (≈ 12.1 µM)
MIC (E. coli ATCC25922; [2]): < 0.5 mg/L
MBC (P. aeruginosa ATCC27853; [3]): 8 mg/L (≈ 24.1 µM)
MIC (P. aeruginosa ATCC27853; [4]): 1 mg/L (≈ 3.02 µM)
MBC (S. aureus ATCC29213; [5]): 1 mg/L (≈ 3.02 µM)
MIC (S. aureus ATCC29213; [6]): < 0.5 mg/L
MBC (E. faecalis ATCC29212; [7]): 8 mg/L (≈ 24.1 µM)
MIC (E. faecalis ATCC29212; [8]): 2 mg/L (≈ 6.04 µM)

Oc1ccc(Cl)c2cccnc12 [ClHQ, 5-chloro-8-hydroxyquinoline, reference compound]
MBC (E. coli ATCC25922; [1]): > 512 mg/L
MIC (E. coli ATCC25922; [2]): 16 mg/L (≈ 89.1 µM)
MBC (P. aeruginosa ATCC27853; [3]): > 512 mg/L
MIC (P. aeruginosa ATCC27853; [4]): 256 mg/L (≈ 1430 µM)
MBC (S. aureus ATCC29213; [5]): 32 mg/L (≈ 178 µM)
MIC (S. aureus ATCC29213; [6]): 8 mg/L (≈ 44.5 µM)
MBC (E. faecalis ATCC29212; [7]): < 0.5 mg/L
MIC (E. faecalis ATCC29212; [8]): < 0.5 mg/L
IC50 (HL-60 cells; HL-60, 24 h, MTT, read-out: IC50 ± SD): 1.7 ± 0.1 µM
IC50 (HL-60 cells; HL-60, 48 h, MTT, read-out: IC50 ± SD): 1.6 ± 0.4 µM
IC50 (HL-60 cells; HL-60, incubation time not stated in the text (24 and 48 h), read-out: IC50): < 2 µM
IC50 (MCF-7 cells; MCF7, MCF-7, 24 h, MTT): 32 ± 8 µM
IC50 (MCF-7 cells; MCF7, MCF-7, 48 h, MTT): 13 ± 5 µM
selectivity: IC50 for normal cells times higher than for breast cancer cells (MCF-7 cells): at least 3 times
IC50 (PC-3 cells; PC-3, 24 h, MTT): 25 ± 3 µM
IC50 (PC-3 cells; PC-3, 48 h, MTT): 39 ± 3 µM
IC50 (SKOV-3 cells; SK-OV-3, SKOV-3, 24 h, MTT): > 100 µM
IC50 (SKOV-3 cells; SK-OV-3, SKOV-3, 48 h, MTT): 42 ± 7 µM
IC50 (MCF-10A cells; 24 h): > 100 µM
IC50 (MCF-10A cells; 48 h): 70 ± 1 µM

Oc1cccc2cccnc12 [HQ, 8-hydroxyquinoline]
MBC (E. coli ATCC25922; ATCC25922): > 512 mg/L
MIC (E. coli ATCC25922; ATCC25922, 24 h): 32 mg/L (≈ 220 µM)
MBC (P. aeruginosa ATCC27853; ATCC27853): > 512 mg/L
MIC (P. aeruginosa ATCC27853; ATCC27853, 24 h): 256 mg/L (≈ 1760 µM)
MBC (S. aureus ATCC29213; ATCC29213): 64 mg/L (≈ 441 µM)
MIC (S. aureus ATCC29213; ATCC29213, 24 h): 16 mg/L (≈ 110 µM)
MBC (E. faecalis ATCC29212; ATCC29212): 32 mg/L (≈ 220 µM)
MIC (E. faecalis ATCC29212; ATCC29212, 24 h): 2 mg/L (≈ 13.8 µM)
IC50 (HL-60 cells; HL-60, 24 h, read-out: IC50 ± SD): 2.2 ± 0.2 µM
IC50 (HL-60 cells; HL-60, 48 h, read-out: IC50 ± SD): 2 ± 0.2 µM
IC50 (MCF-7 cells; MCF7, 24 h): 24 ± 6 µM
IC50 (MCF-7 cells; MCF7, 48 h): 7 ± 2 µM
selectivity: IC50 for normal cells times higher than for breast cancer cells (MCF-7 cells): at least 3 times
IC50 (PC-3 cells; PC-3, 24 h): 18 ± 2 µM
IC50 (PC-3 cells; PC-3, 48 h): 29 ± 3 µM
IC50 (SKOV-3 cells; SK-OV-3, 24 h): > 100 µM
IC50 (SKOV-3 cells; SK-OV-3, 48 h): 29 ± 5 µM
IC50 (MCF-10A cells; 24 h): > 100 µM
IC50 (MCF-10A cells; 48 h): > 100 µM
